DBAASP
In brackets after ≈: the same amount, converted by molar mass. One block for each compound: values may come before it.

What was measured:
Test in all cases: ≥ marks a high value that may be exact or a test limit, other limits are often not marked, values filed in µg/mL are converted to µM
[1] = system: Candida albicans CPCC 400416
[2] = system: Staphylococcus aureus CPCC 100520
[3] = system: Escherichia coli CPCC 100521
[4] = system: Salmonella enterica subsp. enterica serovar Paratyphi B CICC 10437
[5] = system: Staphylococcus aureus CICC 10384
[6] = system: Staphylococcus aureus CICC 10306
[7] = system: Escherichia coli CICC 10293
[8] = system: Enterobacter cloacae CICC 21539
[9] = system: Serratia marcescens ATCC 4112
[10] = system: Saccharomyces cerevisiae CICC 1002
[11] = system: Candida albicans CICC 1965
[12] = system: Bacillus subtilis CICC 10034
[13] = system: Pseudomonas aeruginosa CICC 21636
[14] = system: Listeria innocua CICC 10417
Streptococcus sanguinis = system: Streptococcus sanguinis
Staphylococcus aureus = system: Staphylococcus aureus

MIC [1]: ≥ 52.5 µM | MIC [2]: 26.2 µM (≈ 64 µg/mL) | MIC [3]: 26.2 µM (≈ 64 µg/mL)
SMILES: CC[C@H](C)[C@H](NC(=O)CN)C(=O)NCC(=O)N[C@@H](CO)C(=O)N[C@@H](C)C(=O)N[C@H](C(=O)N[C@@H](CC(C)C)C(=O)N[C@@H](CO)C(=O)N[C@@H](C)C(=O)NCC(=O)N[C@@H](CCCCN)C(=O)N[C@@H](CO)C(=O)N[C@H](C(=O)N[C@H](C(=O)N[C@@H](CCCCN)C(=O)NCC(=O)N[C@@H](CC(C)C)C(=O)N[C@@H](C)C(=O)N[C@@H](CCCCN)C(=O)NCC(=O)N[C@@H](CC(C)C)C(=O)N[C@@H](C)C(=O)N[C@@H](CCC(=O)O)C(=O)N[C@@H](Cc1cnc[nH]1)C(=O)N[C@@H](Cc1ccccc1)C(N)=O)[C@@H](C)CC)[C@@H](C)CC)[C@@H](C)CC [GIGSAILSAGKSIIKGLAKGLAEHF]

MIC [4]: ≥ 46.4 µM | MIC [5]: 11.6 µM (≈ 8 µg/mL) | MIC [6]: 11.6 µM (≈ 8 µg/mL) | MIC [7]: 11.6 µM (≈ 8 µg/mL) | MIC [8]: 23.2 µM (≈ 16 µg/mL) | MIC [9]: ≥ 46.4 µM | MIC [10]: ≥ 46.4 µM | MIC [11]: ≥ 46.4 µM | MIC [12]: ≥ 46.4 µM | MIC [13]: 23.2 µM (≈ 16 µg/mL) | MIC [14]: 5.8 µM (≈ 4 µg/mL)
SMILES: CC[C@H](C)[C@H](NC(=O)[C@H](CCSC)NC(=O)[C@H](CO)NC(=O)[C@@H](NC(=O)[C@@H](NC(=O)[C@@H](N)CCCCN)C(C)C)[C@@H](C)CC)C(=O)O [KVISMI]

MIC (Streptococcus sanguinis): 4.65 µM (≈ 3.87 µg/mL) | MIC (Staphylococcus aureus): 15.4 µM (≈ 12.8 µg/mL)
SMILES: CC[C@H](C)[C@H](NC(=O)[C@H](Cc1ccccc1)NC(=O)[C@@H](N)CC(C)C)C(=O)N[C@@H](Cc1ccccc1)C(=O)N[C@@H](Cc1ccccc1)C(=O)N[C@@H](Cc1ccccc1)C(N)=O [LFIFFF]
